In patent publication US7960552B2, “Farnesoid X receptor agonists” (GlaxoSmithKline LLC, priority 2006, dated 2011):
“Also recorded” adds a separate entry of the source.

Experiments:
[1] = tested on: high-fat diet fed obese mice; test: Effects of FXR agonists on diet induced obese mice; assay type: in vivo, C57BL mice; conditions: 10, 30 and 100 mg/kg twice a day orally; for serum NEFA / serum cholesterol / serum glucose / serum glycerol / serum insulin / serum triglyceride: end of study; for body fat mass: four weeks of treatment, QMR
Description: Methods: Male 20 to 25 g C57BL mice (Charles River, Indianapolis, Ind.) were housed at 72° F. and 50% relative humidity with a 12 h light and dark cycle and fed with standard rodent chow (Purina 5001, Harlan Teklad, Indianapolis, Ind.) or a high-fat diet (TD93075, Harlan Teklad, Indianapolis, Ind.) for eight weeks. After three weeks, mice on high-fat diet were randomized to vehicle or treatment groups based on fasting glucose and body weight. Starting from the fifth week, mice were given either vehicle or the compound in Example 1 (10, 30 and 100 mg/kg) or the compound in Example 5 (10, 30, 100 mg/kg) twice a day orally. Mice on the standard rodent chow were also given vehicle as a control. Body composition was measured using the quantitative magnetic resonance (QMR) method before and at the end of compound treatment. […] Serum chemistry levels were measured using the Instrumentation Laboratory Ilab600™ clinical chemistry analyzer (Instrumentation Laboratory, Boston, Mass.).

[2] = tested on: hepatic stellate cells (HSC); conditions: cultured HSCs; cited from earlier work
[3] = tested on: rodent models of hepatic fibrosis; conditions: multiple rodent models; cited from earlier work
[4] = tested on: high-fat diet induced insulin resistant, glucose intolerant, and obese mouse model; conditions: mice on high-fat diet, cited from earlier work
[5] = tested on: bile duct-ligated mouse model; conditions: cited from earlier work
db/db mice = conditions: oral 30 mg/kg, bid; cited from earlier work
[6] = 100 mg/kg twice a day orally, 100 mg/kg

For `CC(C)c1onc(-c2c(Cl)cccc2Cl)c1COc1ccc(-c2ccc3nc(C(=O)O)ccc3c2)cc1` [Example 1, 6-[4-({[3-(2,6-Dichlorophenyl)-5-(1-methylethyl)-4-isoxazolyl]methyl}oxy)phenyl]-2-quinolinecarboxylic Acid], the “serum NEFA” value [1] was “decreased”, the serum cholesterol [1] was “decreased” and the serum glucose [1] was “decreased”. For the same molecule, the serum glycerol [1] was “decreased”, the serum insulin [1] was “decreased” and the serum triglyceride [1] was “decreased”. The body fat mass [1] was “decreased”.
For `CC[C@H]1[C@@H](O)[C@@H]2[C@H](CC[C@]3(C)[C@@H]([C@H](C)CCC(=O)O)CC[C@@H]23)[C@@]2(C)CC[C@@H](O)C[C@@H]12` [Example 6EtCDCA, 6-ethyl-chenodeoxycholic acid], the “expression of fibrotic marker α1(I)collagen” value [2] is given as “decreased”, the “expression of fibrotic marker α-smooth muscle actin” value [2] is given as “decreased” and the “development of hepatic fibrosis” value [3] is given as “prevent”. The “resolution of hepatic fibrosis” value [3] was “promote”.
With `CC(C)c1onc(-c2c(Cl)cccc2Cl)c1COc1ccc(-c2ccc3cc(C(=O)O)ncc3c2)cc1` [Example 5, 7-[4-({[3-(2,6-Dichlorophenyl)-5-(1-methylethyl) -4-isoxazolyl]methyl}oxy)phenyl]-3-isoquinolinecarboxylic acid] the “serum NEFA” value [1] was “decreased”, the serum cholesterol [1] was “decreased” and the serum glucose [1] was “decreased”. The serum glycerol [1] was “decreased”, the serum insulin [1] was “decreased” and the serum triglyceride [1] was “decreased”. For the same molecule, the body fat mass [1] was “decreased”.
For `CC(C)c1onc(-c2c(Cl)cccc2Cl)c1COc1ccc(/C=C/c2cccc(C(=O)O)c2)c(Cl)c1` [GW4064], the serum glucose [4, 6] is given as “decreased”, the serum insulin [4, 6] is given as “decreased” and the serum triglyceride [4, 6] is given as “decreased”. For the same molecule, the glucose tolerance ([4]; 100 mg/kg twice a day orally, GTT, 100 mg/kg) was “corrected glucose intolerance; also recorded: improve”, the “high-fat diet induced body weight gain” value ([4]; 100 mg/kg twice a day orally) was “reduced” and the liver triglyceride content ([4]; 100 mg/kg twice a day orally) was “reduced”. For the same molecule, the body fat mass [4] was “decrease”, the body weight [4] was “decrease” and the serum total cholesterol [4] was “decrease”. For the same molecule, the bacterial overgrowth [5] was “decreased”, the mucosal barrier [5] was “improved” and the “translocation of bacteria to mesenteric lymph nodes” value [5] was “decreased”. For the same molecule, the NEFA (db/db mice) was “decreased”, the total cholesterol (db/db mice) was “decreased” and the triglyceride (db/db mice) was “decreased”.
